Laboratory results reported in the CheMixHub ionic liquid set.

Assay: xn = mol fraction of the nth substance listed

CCCCCCCCn1cc[n+](C)c1.F[B-](F)(F)F + CCC(C)=O
298.15 K, 101 kPa
Details	viscosity [mPa·s]
x2 = 0.101	188
x2 = 0.4505	24.78
x2 = 0.7023	5.04
x2 = 0.8033	2.29
x2 = 0.899	1.03

CC(C)O + CCCCCC[n+]1ccn(C)c1.O=[N+]([O-])[O-]
100 kPa, x2 = 0
Details	viscosity [mPa·s]
293.15 K	2.42
298.15 K	2.08
303.15 K	1.8
308.15 K	1.56
313.15 K	1.36
318.15 K	1.19
323.15 K	1.05

[Cl-].[NH4+] + CC(=O)[O-].CC[n+]1ccn(C)c1
101 kPa
Details	electrical conductivity [S/m]	viscosity [mPa·s]
298.15 K, x1 = 0.0505	0.234	172
303.15 K, x1 = 0.0505	0.308	124.6
313.15 K, x1 = 0.0999	0.431	91.7
313.15 K, x1 = 0.1702	0.341	142.8
318.15 K, x1 = 0.0505	0.622	55.4
323.15 K, x1 = 0.0505	0.755	44

CCCC[n+]1ccn(C)c1.[Cl-] + OC[C@H]1O[C@@](CO)(O[C@H]2O[C@H](CO)[C@@H](O)[C@H](O)[C@H]2O)[C@@H](O)[C@@H]1O + O
298.15 K, 101.3 kPa
Details	electrical conductivity [S/m]
x2 = 0, x1 = 8.71e-06	0.00583
x2 = 0, x1 = 1.208e-05	0.00794
x2 = 0, x1 = 1.485e-05	0.00965
x2 = 0, x1 = 1.707e-05	0.01101
x2 = 0, x1 = 1.937e-05	0.01241
x2 = 0, x1 = 2.164e-05	0.0138
x2 = 0, x1 = 2.397e-05	0.0152
x2 = 0, x1 = 2.6e-05	0.0164
x2 = 0, x1 = 2.824e-05	0.0177
x2 = 0, x1 = 3.029e-05	0.019
x2 = 0.003591, x1 = 1.096e-05	0.00618
x2 = 0.003591, x1 = 1.434e-05	0.00795
x2 = 0.003591, x1 = 1.771e-05	0.0097
x2 = 0.003591, x1 = 2.081e-05	0.0113
x2 = 0.003591, x1 = 2.41e-05	0.013
x2 = 0.003591, x1 = 2.709e-05	0.0145
x2 = 0.003591, x1 = 3.023e-05	0.01612
x2 = 0.003591, x1 = 3.313e-05	0.0176
x2 = 0.003591, x1 = 3.593e-05	0.019
x2 = 0.007156, x1 = 8.21e-06	0.00407
x2 = 0.007156, x1 = 1.202e-05	0.00576
x2 = 0.007156, x1 = 1.591e-05	0.00748
x2 = 0.007156, x1 = 1.939e-05	0.009
x2 = 0.007156, x1 = 2.274e-05	0.0105
x2 = 0.007156, x1 = 2.585e-05	0.0118
x2 = 0.007156, x1 = 2.894e-05	0.01315
x2 = 0.007156, x1 = 3.183e-05	0.01439
x2 = 0.007156, x1 = 3.476e-05	0.0156
x2 = 0.007156, x1 = 3.761e-05	0.0169
x2 = 0.0107, x1 = 9.71e-06	0.00386
x2 = 0.0107, x1 = 2.409e-05	0.00888
x2 = 0.0107, x1 = 3.038e-05	0.01101
x2 = 0.0107, x1 = 3.477e-05	0.0125
x2 = 0.0107, x1 = 3.967e-05	0.01408
x2 = 0.0107, x1 = 4.399e-05	0.0155
x2 = 0.0107, x1 = 4.83e-05	0.0169
x2 = 0.0107, x1 = 5.264e-05	0.01825
x2 = 0.0107, x1 = 5.673e-05	0.0195
x2 = 0.01421, x1 = 1.037e-05	0.00348
x2 = 0.01421, x1 = 1.591e-05	0.00514
x2 = 0.01421, x1 = 2.109e-05	0.00667
x2 = 0.01421, x1 = 2.647e-05	0.00823
x2 = 0.01421, x1 = 3.163e-05	0.00971
x2 = 0.01421, x1 = 3.643e-05	0.01107
x2 = 0.01421, x1 = 4.107e-05	0.01237
x2 = 0.01421, x1 = 4.582e-05	0.0137
x2 = 0.01421, x1 = 5.048e-05	0.015
x2 = 0.01421, x1 = 5.498e-05	0.01621
x2 = 0.01421, x1 = 5.983e-05	0.0175
x2 = 0.0177, x1 = 1.237e-05	0.00351
x2 = 0.0177, x1 = 1.842e-05	0.00504
x2 = 0.0177, x1 = 2.347e-05	0.00631
x2 = 0.0177, x1 = 2.887e-05	0.00764
x2 = 0.0177, x1 = 3.44e-05	0.00899
x2 = 0.0177, x1 = 4.072e-05	0.0105
x2 = 0.0177, x1 = 4.633e-05	0.0118
x2 = 0.0177, x1 = 5.265e-05	0.01333
x2 = 0.0177, x1 = 5.909e-05	0.0148
x2 = 0.0177, x1 = 6.545e-05	0.0163
x2 = 0.0177, x1 = 7.135e-05	0.0176
